Test system: Diaphorina citri
Assay: Two-port T-olfactometer behavioral bioassay with synthetic chemicals vs. clean air (solvent-only wick)
Format: in vivo
Settings: for Proportion of D. citri responding to treatment arm: non-infected female adults, treatment vs solvent control arm
Source text: A custom designed two-port divided T-olfactometer [Analytical Research Systems (ARS), Inc. Gainesville, Fla.] that has been thoroughly described in [98] was used to evaluate behavioral response of D. citri. Briefly, the olfactometer consisted of a 30 cm long glass tube with 3.5 cm internal diameter that is bifurcated into two equal halves with a Teflon strip forming a T-maze. Each half served as an arm of the olfactometer enabling the D. citri to make a choice between two potential odor fields. The olfactometer arms were connected to odor sources placed in 35 cm tall×15 cm wide dome shaped guillotine volatile collection chambers (GVCC) (ARS, Gainesville, Fla.) through Teflon-glass tube connectors. The odor sources comprised 14-16 week old Las-infected or non-infected C. sinensis plants placed in GVCC. Purified and humidified air was pushed through the GVCC via two pumps connected to an air delivery system (ARS, Gainesville, Fla.). A constant airflow of 0.1 L/min was maintained through both arms of the olfactometer. The olfactometer was housed within a temperature-controlled room and positioned vertically under a fluorescent 900-lux light bulb within a fiberboard box for uniform light diffusion. This positioning took advantage of the negative geotactic and positive phototactic response of D. citri.
D. citri adults were released individually into the inlet adapter at the base of the olfactometer. An odor source was randomly assigned to one of the arms of the olfactometer at the beginning of each bioassay and was reversed after every 30 insects to eliminate positional bias. Initially, D. citri adults were exposed to clean air vs. clean air in the olfactometer to verify the absence of positional bias. Thereafter, the behavioral response of non-infected or Las-infected D. citri was tested against non-infected versus Las-infected plants. D. citri adults were also exposed to non-infected grafted (sham grafted) vs. non-grafted-non-infected plants to determine the effects of grafting only on D. citri behavior. For each treatment, C. sinensis plants were grafted with C. aurantifolia budwood four months prior to initiating behavioral experiments. A minimum of 150 male or female D. citri adults were examined per treatment combination (five replications of 30 D. citri). Each D. citri that responded to odors was individually subjected to qPCR to determine Las infection status using the procedures described above.
MeSA was released in greater quantities from Las-infected plants than non-infected plants, while MeAN and D-limonene were released in greater quantities by non-infected than infected plants (See results). Therefore, the behavioral response of D. citri to these synthetic chemicals was tested. A known D. citri attractant, β-ocimene, was used as a positive control. All chemicals were obtained from Sigma Aldrich (St Louis, Mo.) with purities ranging between 97 and 99%. Purity of β-ocimene was 90% and contained a mixture of isomers comprising 20-25% limonene. Each treatment was dissolved in 100 μl of dichloromethane and pipetted onto a 2 cm Richmond cotton wick (Petty John Packaging, Inc. Concord, N.C.) at 0.001, 0.01, 0.1, 1.0, 10.0 and 100.0 μg dosages. The control treatment consisted of a cotton wick impregnated with solvent only. The solvent from both treatments was allowed to evaporate within a fume hood for 30 min prior to assays. The bioassay procedures with synthetic chemicals were identical to those described earlier for plant samples. However, in this case, treatments (odor sources) were placed into solid phase micro extraction chambers (SPMEC) (ARS, Gainesville, Fla.) instead of the GVCC described above. The SPMEC consists of a straight glass tube (17.5 cm long×2.5 cm internal diameter) supported with an inlet and outlet valve for incoming and outgoing air streams, respectively. […]

With C=C(C)[C@H]1CC=C(C)CC1 [D-limonene] the “Behavioral response of D. citri (attraction/repulsion)” value (100 μg dosage) was “attracted”, the “Proportion of D. citri responding to treatment arm” value (“Proportion of D. citri responding” below) (dosage 0.001 μg on cotton wick) was 56.06 and the “Proportion of D. citri responding” value (dosage 0.01 μg on cotton wick) was 60.87. The “Proportion of D. citri responding” value (dosage 0.1 μg on cotton wick) was 54.39, the “Proportion of D. citri responding” value (dosage 1.0 μg on cotton wick) was 54.65 and the “Proportion of D. citri responding” value (dosage 10.0 μg on cotton wick) was 60.24. The “Proportion of D. citri responding” value (dosage 100.0 μg on cotton wick) was 61.54.

In the case of COC(=O)c1ccccc1N [Methyl anthranilate, methyl anthranilate], the “Behavioral response of D. citri (attraction/repulsion)” value (any of the dosages tested (0.001-100 μg)) was “did not attract or repel”, the “Proportion of D. citri responding” value (dosage 0.001 μg on cotton wick) was 58.06 and the “Proportion of D. citri responding” value (dosage 0.01 μg on cotton wick) was 57.14. For the same molecule, the “Proportion of D. citri responding” value (dosage 0.1 μg on cotton wick) was 61.76, the “Proportion of D. citri responding” value (dosage 1.0 μg on cotton wick) was 57.33 and the “Proportion of D. citri responding” value (dosage 10.0 μg on cotton wick) was 56.10. For the same molecule, the “Proportion of D. citri responding” value (dosage 100.0 μg on cotton wick) was 52.27.

COC(=O)c1ccccc1O [Methyl salicylate, methyl salicylate] was tested, and the “Behavioral response of D. citri (attraction/repulsion)” value (0.001 μg dosage) was “attracted”, the “Behavioral response of D. citri (attraction/repulsion)” value (100 μg dosage) was “repelled” and the “Proportion of D. citri responding” value (dosage 0.001 μg on cotton wick) was 54.00. For the same molecule, the “Proportion of D. citri responding” value (dosage 0.01 μg on cotton wick) was 60.44, the “Proportion of D. citri responding” value (dosage 0.1 μg on cotton wick) was 54.76 and the “Proportion of D. citri responding” value (dosage 1.0 μg on cotton wick) was 45.12. For the same molecule, the “Proportion of D. citri responding” value (dosage 10.0 μg on cotton wick) was 41.03 and the “Proportion of D. citri responding” value (dosage 100.0 μg on cotton wick) was 39.56.

For C=CC(C)=CCC=C(C)C [β-ocimene, reference compound], the “Behavioral response of D. citri (attraction/repulsion)” value (1-100 μg dosages) was “attractive”, the “Proportion of D. citri responding” value (dosage 0.001 μg on cotton wick) was 52.22 and the “Proportion of D. citri responding” value (dosage 0.01 μg on cotton wick) was 54.46. The “Proportion of D. citri responding” value (dosage 0.1 μg on cotton wick) was 53.19, the “Proportion of D. citri responding” value (dosage 1.0 μg on cotton wick) was 60.44 and the “Proportion of D. citri responding” value (dosage 10.0 μg on cotton wick) was 61.46. The “Proportion of D. citri responding” value (dosage 100.0 μg on cotton wick) was 62.77.

Reference: patent US20130266535A1, “METHYL SALICYLATE-BASED ATTRACTANTS FOR VECTORS OF CITRUS GREENING DISEASE” (priority 2012, published 2013)
